Results published in the supplement of paper PMC11061612.

Experiments:
Experiment in all cases: combination Emax (second highest fraction inhibited in the dose matrix, 72 h); higher = more inhibition; extreme values may be limits of the assay
[1] = tested on: 786-0 (Kidney Carcinoma)
How it was run: (§1)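 Cell lines in DMEM/F12 or RPMI with 10% FBS were plated in 1536-well plates, held 24 hours at 37°C, 5% CO2, then given two-drug dose matrices for 72 hours (DMSO typically 0.2%). Viability was read by CellTiter-Glo 2.0 luminescence and scaled as inhibition from 0 (vehicle wells) to 1 (blank wells). Combination Emax is the second-highest inhibition in the matrix; Bliss excess is observed combination effect minus expected EA + EB − EA·EB, EA and EB being single-agent effects.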

[2] = tested on: AsPC-1 (Pancreatic Carcinoma)
How it was run: as §1

[3] = tested on: Calu-6 (Non-Small Cell Lung Carcinoma)
How it was run: as §1

[4] = tested on: ES-2 (Ovarian Carcinoma)
How it was run: as §1

[5] = tested on: FLO-1 (Esophageal Adenocarcinoma)
How it was run: as §1

[6] = tested on: HSC-3 (Oral Cavity Carcinoma)
How it was run: as §1

[7] = tested on: HTC-C3 (Thyroid Gland Carcinoma)
How it was run: as §1

[8] = tested on: JHH-1 (Hepatocellular Carcinoma)
How it was run: as §1

[9] = tested on: LAMA-84 (Chronic Myelogenous Leukemia)
How it was run: as §1

[10] = tested on: LOUCY (T-Lymphoblastic Leukemia)
How it was run: as §1

[11] = tested on: NCI-H1755 (Lung Adenocarcinoma)
How it was run: as §1

[12] = tested on: NCI-H810 (Non-Small Cell Lung Carcinoma)
How it was run: as §1

[13] = tested on: OCI-AML5 (Acute Myeloid Leukemia)
How it was run: as §1

[14] = tested on: OV-90 (Ovarian Carcinoma)
How it was run: as §1

[15] = tested on: RPMI-8866 (Chronic Myelogenous Leukemia)
How it was run: as §1

[16] = tested on: RT4 (Bladder Carcinoma)
How it was run: as §1

[17] = tested on: SJRH30 (Rhabdomyosarcoma)
How it was run: as §1

[18] = tested on: SK-MM-2 (Plasma Cell Myeloma)
How it was run: as §1

[19] = tested on: SW684 (Other Solid Carcinomas)
How it was run: as §1

SMILES	combination Emax [1]	combination Emax [2]	combination Emax [3]	combination Emax [4]	combination Emax [5]	combination Emax [6]	combination Emax [7]	combination Emax [8]	combination Emax [9]	combination Emax [10]	combination Emax [11]	combination Emax [12]	combination Emax [13]	combination Emax [14]	combination Emax [15]	combination Emax [16]	combination Emax [17]	combination Emax [18]	combination Emax [19]
C[C@@H](c1ccc2nccn2c1)n1nnc2ncc(-c3cnn(C)c3)nc21 [Savolitinib] + Cc1c2c(nn1C)CSCc1cc(n(C)n1)CSc1cc(c3ccccc3c1)OCCCc1c(C(=O)O)n(C)c3c-2c(Cl)ccc13 [AZD5991] (first compound max 1 µM, 7x7, partner max 1 µM)	0.183	0.184	0.172	0.176	0.294	0.206	0.182	0.208	0.234	0.46	0.173	0.255	0.137	0.185	0.108	0.25	0.464	0.131	0.161
COc1nnc2ccc(N3CCC(c4ccc(OCCN5CCN(C)C(=O)[C@H]5C)cc4)CC3)nn12 [AZD5153] + CC1(C)CCC(CN2CCN(c3ccc(C(=O)NS(=O)(=O)c4ccc(NCC5CCOCC5)c([N+](=O)[O-])c4)c(Oc4cnc5[nH]ccc5c4)c3)CC2)=C(c2ccc(Cl)cc2)C1 [Venetoclax] (first compound max 1 µM, 7x7, partner max 1 µM)	0.503	0.176	0.157	0.546	0.51	0.69	0.763	0.391	0.82	1	0.454	0.583	1	0.387	0.814	0.483	0.383	1	0.531
NC1(C(=O)N[C@@H](CCO)c2ccc(Cl)cc2)CCN(c2ncnc3[nH]ccc23)CC1 [Capivasertib] + COc1nnc2ccc(N3CCC(c4ccc(OCCN5CCN(C)C(=O)[C@H]5C)cc4)CC3)nn12 [AZD5153] (first compound max 10 µM, 7x7, partner max 1 µM)	0.733	0.268	0.461	0.766	0.612	0.861	0.791	0.378	0.907	0.998	0.717	0.582	0.769	0.596	0.839	0.457	0.876	0.887	0.579
NC1(C(=O)N[C@@H](CCO)c2ccc(Cl)cc2)CCN(c2ncnc3[nH]ccc23)CC1 [Capivasertib] + Cn1cnc2c(F)c(Nc3ccc(Br)cc3Cl)c(C(=O)NOCCO)cc21 [Selumetinib] (first compound max 10 µM, 7x7, partner max 10 µM)	0.696	0.491	0.707	0.616	0.559	0.786	0.772	0.295	0.977	0.66	0.644	0.139	0.951	0.627	0.432	0.45	0.769	0.36	0.626
COc1nnc2ccc(N3CCC(c4ccc(OCCN5CCN(C)C(=O)[C@H]5C)cc4)CC3)nn12 [AZD5153] + C[C@@H]1COCCN1C2=NC(=NC(=C2)C3(CC3)[S@](=N)(=O)C)C4=C5C=CNC5=NC=C4 [AZD6738] (first compound max 1 µM, 7x7, partner max 10 µM)	0.754	0.367	0.87	0.877	0.823	0.845	0.845	0.663	0.97	0.997	0.874	0.795	0.95	0.563	0.958	0.708	0.945	0.917	0.464
CC(=O)c1c(C)c2cnc(Nc3ccc(N4CCNCC4)cn3)nc2n(C2CCCC2)c1=O [Palbociclib] + Cc1c2c(nn1C)CSCc1cc(n(C)n1)CSc1cc(c3ccccc3c1)OCCCc1c(C(=O)O)n(C)c3c-2c(Cl)ccc13 [AZD5991] (first compound max 10 µM, 7x7, partner max 1 µM)	0.489	0.199	0.33	0.619	0.603	0.613	0.248	0.289	0.663	0.553	0.524	0.224	0.517	0.158	0.725	0.355	0.786	0.259	0.335
CC(=O)c1c(C)c2cnc(Nc3ccc(N4CCNCC4)cn3)nc2n(C2CCCC2)c1=O [Palbociclib] + CC1(C)CCC(CN2CCN(c3ccc(C(=O)NS(=O)(=O)c4ccc(NCC5CCOCC5)c([N+](=O)[O-])c4)c(Oc4cnc5[nH]ccc5c4)c3)CC2)=C(c2ccc(Cl)cc2)C1 [Venetoclax] (first compound max 10 µM, 7x7, partner max 1 µM)	0.411	0.104	0.353	0.501	0.495	0.359	0.189	0.138	0.496	1	0.477	0.0599	0.837	0.0192	0.754	0.203	0.0832	1	0.147
NC1(C(=O)N[C@@H](CCO)c2ccc(Cl)cc2)CCN(c2ncnc3[nH]ccc23)CC1 [Capivasertib] + CC(=O)c1c(C)c2cnc(Nc3ccc(N4CCNCC4)cn3)nc2n(C2CCCC2)c1=O [Palbociclib] (first compound max 10 µM, 7x7, partner max 10 µM)	0.681	0.396	0.415	0.72	0.551	0.78	0.474	0.143	0.558	0.688	0.659	0.141	0.479	0.305	0.75	0.362	0.794	0.409	0.54
NC1(C(=O)N[C@@H](CCO)c2ccc(Cl)cc2)CCN(c2ncnc3[nH]ccc23)CC1 [Capivasertib] + CCN(CCO)CCCOc1ccc2c(Nc3cc(CC(=O)Nc4cccc(F)c4)[nH]n3)ncnc2c1 [AZD2811] (first compound max 10 µM, 7x7, partner max 1 µM)	0.553	0.233	0.413	0.413	0.415	0.689	0.405	0.232	0.612	0.918	0.648	0.534	0.974	0.364	0.562	0.457	0.734	0.239	0.617
COc1cc2ncnc(Nc3ccc(F)c(Cl)c3)c2cc1OCCCN1CCOCC1 [Gefitinib] + CC(C)n1c(=O)n(C)c2cnc3cc(F)c(-c4ccc(OCCCN5CCCCC5)nc4)cc3c21 [AZD1390] (first compound max 10 µM, 7x7, partner max 0.3 µM)	0.247	0.13	0.128	0.41	0.357	0.623	0.0317	0.247	0.315	0.296	0.264	0.158	0.145	0.12	0.119	0.128	0	0.151	0.136
NC1(C(=O)N[C@@H](CCO)c2ccc(Cl)cc2)CCN(c2ncnc3[nH]ccc23)CC1 [Capivasertib] + CC(C)n1c(=O)n(C)c2cnc3cc(F)c(-c4ccc(OCCCN5CCCCC5)nc4)cc3c21 [AZD1390] (first compound max 10 µM, 7x7, partner max 0.3 µM)	0.489	0.208	0.222	0.257	0.346	0.608	0.308	0.169	0.328	0.623	0.443	0.166	0.22	0.284	0.402	0.0517	0.701	0.243	0.536
COc1nnc2ccc(N3CCC(c4ccc(OCCN5CCN(C)C(=O)[C@H]5C)cc4)CC3)nn12 [AZD5153] + Cn1cnc2c(F)c(Nc3ccc(Br)cc3Cl)c(C(=O)NOCCO)cc21 [Selumetinib] (first compound max 1 µM, 7x7, partner max 10 µM)	0.577	0.595	0.854	0.705	0.635	0.812	0.804	0.693	1	0.729	0.564	0.587	1	0.817	0.805	0.686	0.486	0.963	0.531
Cn1cnc2c(F)c(Nc3ccc(Br)cc3Cl)c(C(=O)NOCCO)cc21 [Selumetinib] + C=CCn1c(=O)c2cnc(Nc3ccc(N4CCN(C)CC4)cc3)nc2n1-c1cccc(C(C)(C)O)n1 [AZD1775] (first compound max 10 µM, partner max 1 µM)	0.572	0.437	0.855	0.66	0.792	0.601	0.691	0.599	0.973	0.977	0.776	0.542	0.944	0.628	0.956	0.368	0.846	0.236	0.152
